In patent publication US12195745B2, “Compositions and methods for modulating transduction efficiency of adeno-associated viruses” (Massachusetts Eye and Ear Infirmary, priority 2018, dated 2025):

Columns and labels:
Huh7 cells [1] = assay: Inhibitor pre-treatment, then Neuraminidase from Vibrio cholera, then AAV transduction; format: cell-based, human; details: 2 mM inhibitor 24 h, then 2 h Neuraminidase from Vibrio cholera
Protocol: Briefly, 10,000 cells per well were plated in 96-well plates 1 day prior to inhibitor treatment. Cells were incubated with the indicated concentration of Zanamivir (Sigma SML0492) or DANA (EMD Millipore 252926) for 24 hours prior to transduction in a total volume of 100 μL D10. When indicated, control or inhibitor treated cells were treated with 50 mU/mL Neuraminidase from Vibrio cholera Type III (Sigma Aldrich, Cat#N7885) in serum-free DMEM, followed by AAV transduction as described.
Because NEU1 and CTSA play a role in cellular glycosylation states, confirmation was desired that the entry defect was not due to an overall alteration in glycosylation at the cell surface, leading to an attachment, defect. To do this, cells were first pre-treated for 24 h with Zanamivir or DANA, followed by treatment with a neuraminidase from Vibrio cholera to remove any sialic acid that may have accumulated at the cell surface due to NEU1 inhibition.
The indicated pre-chilled vector was then added to cells on ice, incubated for 1 hour for the vectors to undergo attachment, unbound vector was washed away using ice-cold PBS, then transduction was allowed to proceed and vector transduction assessed in the different treatment conditions by fold-change relative to untreated control cells via luciferase assay. […]

Huh7 cells [2] = assay: Neuraminidase inhibitor pre-treatment of Huh7 cells followed by AAV transduction (luciferase); format: cell-based, human; details: for effect on transduction, short pre-treatment: 1 hour pre-treatment; for effect on AAV4 entry / effect on AAV5 transduction / effect on Anc80 transduction / decrease of rh32.33 transduction: 24 hours pre-treatment, 10,000 VG/cell; for decrease of rh32.33 transduction: CMV.Luciferase.SVPA
Protocol: All luciferase transduction assays were done by seeding 10,000 cells per well in black-bottom 96 well plates overnight. When indicated, cells were pre-incubated with 200 pfu/cell of WT hAd5 (University of Pennsylvania Vector core) in D10 for two hours, then hAd5-containing medium was removed prior to transduction. Cells were transduced with either AAV at 1×10^4 VG/cell in 50 μL serum-free DMEM (AAVR rescue experiments) for 1 h at 37° C., then D10 was added to a total volume of 200 μL, or 100 μl per well of crude virus prep (chimeric, and point mutant capsid experiments) was added for 1 h at 37° C., removed, then D10 was added. Transduction levels were analyzed by luciferase assay 48 hours post-transduction.
Two days post-transduction, cell culture medium was removed and cells were lysed in 20 μL per well of 1× Reporter Lysis Buffer (Promega, Cat#), then frozen at −80° C. After thaw, ffLuc expression was measured in Relative Light Units/s on a Synergy H1 Hybrid Multi-Mode Microplate reader using 100 μL luciferin buffer [200 mM Tris pH 8, 10 mM MgCl2, 300 μM ATP, 1× Firefly Luciferase signal enhancer (Thermo Cat#16180), and 150 μg/mL D-Luciferin].
Because NEU1 is an enzyme and CTSA, also identified in the entry screen (FIG. 5C), is required for maintaining the catalytically active conformation of NEU1 (D'Azzo et al., 1982, PNAS USA, 79:4535-9; and Vinogradova et al., 1998, Biochem. J. 330(Pt 2):641-50), whether enzymatic activity of NEU1 is required for its function was tested in rh32.33 and AAV4 entry. Two different sialic acid analog neuraminidase inhibitor compounds were used, Zanamivir (von Itzstein et al., 1993, Nature, 363:418-23) and DANA (Meindl et al., 1974, Virology, 58:457-63), to do a dose response on Huh7 cells and assess the effect on entry of different AAVR dependent and AAVR independent serotypes. Two different AAVR-dependent serotypes, AAV5 and Anc80, and two AAVR-independent serotypes, rh32.33 and AAV4, were tested. Importantly, AAV4 and AAV5 were examined because both AAVs use sialic acid as an attachment factor (Kaludov et al., 2001, J. Virol., 75:6884-93; and Walters et at, 2001, J. Biol. Chem., 276:20610-6) yet differ in their AAVR dependence.
Briefly, 10,000 cells per well were plated in 96-well plates 1 day prior to inhibitor treatment. […] When indicated, control or inhibitor treated cells were treated with 50 mU/mL Neuraminidase from Vibrio cholera Type III (Sigma Aldrich, Cat#N7885) in serum-free DMEM, followed by AAV transduction as described.

Compound | reversal of rh32.33 entry inhibition after neuraminidase treatment (Huh7 cells [1]) | effect on transduction, short pre-treatment (Huh7 cells [2]) | effect on AAV4 entry (Huh7 cells [2]) | effect on AAV5 transduction (Huh7 cells [2]) | effect on Anc80 transduction (Huh7 cells [2]) | decrease of rh32.33 transduction (Huh7 cells [2])
CC(=O)N[C@H]1[C@H]([C@H](O)[C@H](O)CO)OC(C(=O)O)=C[C@@H]1N=C(N)N [Zanamivir] | a reversal of entry inhibition was not observed | did not show any decrease in transduction | slightly decreased AAV4 entry | Neither of the AAVR-dependent serotypes, AAV5 or Anc80, showed a decrease in transduction | Neither of the AAVR-dependent serotypes, AAV5 or Anc80, showed a decrease in transduction | roughly ten-fold
CC(=O)N[C@H]1[C@H]([C@H](O)[C@H](O)CO)OC(C(=O)O)=C[C@@H]1O [DANA] | a reversal of entry inhibition was not observed | did not show any decrease in transduction | slightly decreased AAV4 entry | Neither of the AAVR-dependent serotypes, AAV5 or Anc80, showed a decrease in transduction | Neither of the AAVR-dependent serotypes, AAV5 or Anc80, showed a decrease in transduction | roughly ten-fold
